Assay results taken from PubChem BioAssay AID2305 (GlaxoSmithKline (GSK), 2010).
Values joined by “and” are separate entries in the source; they are usually repeats but may differ in a detail not shown here. Equal values may be shown once.

Tested on: P. falciparum 3D7 growth, pLDH absorbance
Assay: P. falciparum 3D7 growth inhibition, dose response, strain 3D7 (AID 2305)

Row | Compound | IC50
1 | CN(CC(=O)N1CCN(S(=O)(=O)c2cccc(Cl)c2)CC1CN1CCCC1)c1ccc(Cl)c(Cl)c1 (centres undefined) | 1240 nM
2 | CC(C)(CNCc1cccc(Oc2ccccc2)c1)c1nc(-c2ccc(Cl)c(O)c2)c(-c2ccnc(N)n2)[nH]1 | 760 nM
3 | Cc1cc2ccc(/C=C/C(=O)NC3CCC(CCN4CCc5ccc(C#N)cc5CC4)CC3)cc2[nH]1 (centres undefined) | 940 nM
4 | Cc1[nH]c(C)c(-c2ccc(Oc3cccc(C(F)(F)F)c3)cc2)c(=O)c1Br | 10 nM
5 | O=[N+]([O-])c1ccc(C(O)CNCCc2ccccc2)cc1OCc1ccccc1 (centres undefined) | 910 nM
6 | CCOCn1c(-c2ccccc2)cc2c3c(N)nc(N)nc3ccc21 | 190 nM
7 | CCC1(CC)CN(c2ccccc2)c2ccc(O)cc2S(=O)(=O)C1CC(C)C (centres undefined) | 400 nM
8 | O=C(NC1CC1)c1cnc(N2CCN(Cc3c(F)cccc3Cl)CC2)c(Cl)c1 | 910 nM
9 | CCCCCCN1CCCN(Cc2ccc(C(=O)Nc3cccc(CC)c3)cc2)CC1 | 670 nM
10 | Cc1cc(NCCCOc2ccc(Cl)cc2)nc(NCc2ccccc2)n1 | 780 nM
11 | COc1cccc(NC(=O)Nc2c(-c3cccc(C(F)(F)F)c3)c(C(F)(F)F)nn2C)c1 | 910 nM
12 | O=S(=O)(c1ccccc1)n1ccc2cc(Nc3ncnc4cc(C#C[C@H]5CCCN5)sc34)ccc21 | 1070 nM
13 | COc1ccc(-c2ccc(NC(=O)c3cccc(Cl)c3)cc2)cc1CN1CCCN(C)CC1 | 600 nM
14 | CCOC(=O)CC[C@H](NC(=O)c1ccc(NS(=O)(=O)c2ccc(-c3cnc(N)[nH]c3=O)cc2)cc1)C(=O)OCC | 170 nM
15 | CNC(=O)C1Cc2c([nH]c3ccc(Br)cc23)C2(CCN(CCc3ccccc3)CC2)N1 (centres undefined) | 920 nM
16 | CC(=O)Nc1cccc(/C=C/C(=O)N2CCC(N3CCCCC3)CC2)c1 | 1050 nM
17 | O=C1c2ccc([N+](=O)[O-])cc2C(=O)N1c1ccc2[nH]ncc2c1 | 1150 nM
18 | Cc1ccccc1C1CCN(C2CCC(NC(=O)C3=Cc4cc(Cl)ccc4OC3)CC2)CC1 (centres undefined) | 890 nM
19 | CC1CCCN(Cc2cc(Cl)cc(Cl)c2O)C1 (centres undefined) | 930 nM
20 | NC(N)=Nc1nc(-c2ccc(N=C(N)N3CCC[C@H]3CN3CCCC3)cc2)cs1 | 1110 nM
21 | COc1ccc(C2CCN(CCN3CCC(NC(=O)c4cccc(-c5ccncc5)c4)CC3)CC2)c(OC)c1 | 800 nM
22 | CSc1ccc(C[C@@H](C)NC[C@H](O)c2cccc(Cl)c2)cc1 | 940 nM
23 | O=C(/C=C/c1ccc(Cl)c(Cl)c1)NCCCCCN1CCC(NC(=O)Nc2cccc(C(F)(F)F)c2)CC1 | 700 nM
24 | CCc1ccc(-c2nc3cc(NC(=O)c4ccc([N+](=O)[O-])o4)ccc3o2)cc1 | 250 nM
25 | COc1ccc(C(=O)NC(Nc2ccc([N+](=O)[O-])cc2)C(Cl)(Cl)Cl)cc1 (centres undefined) | 1070 nM

Row | Compound | IC50
26 | Cc1ccc(Nc2nc3cc(Nc4ccnc(Nc5cccc(CS(C)(=O)=O)c5)n4)ccc3o2)cc1 | 920 nM
27 | CSc1cccc(Nc2nc3ccc(S(=O)(=O)NC(C)C(C)C)cc3n2[C@H](C)C(C)(C)C)c1 (some centres undefined) | 450 nM
28 | CC(C)c1ccc(NC(=O)c2cccc(CN3CCCN(CC4CCCCC4)CC3)c2)cc1 | 710 nM
29 | COc1ccc(Cl)cc1NC(=O)C(C)Nc1ccc(-c2ccccc2)cc1 (centres undefined) | 560 nM
30 | CC(=NNc1nc2ccccc2s1)c1ccccn1 | 1120 nM
31 | Cc1nc(-c2nc(NCCc3ccncc3)ncc2-c2ccsc2)sc1C | 300 nM
32 | FC(F)(F)c1ccc2nc(-c3cccc(-c4ccc(CNCc5ccccc5)cc4)c3)[nH]c2c1 | 160 nM
33 | Fc1ccc(-c2oc(C3CCN(CCc4ccc(-c5nc(=S)o[nH]5)cc4)CC3)nc2COCC(F)(F)F)cc1 | 420 nM
34 | CCCCOc1cc2c(cc1OCC)C(C=Cc1ccc(Cl)cc1Cl)=NCC2 | 400 nM
35 | COc1ccc2ccccc2c1CCCCN1CCN(CC(c2ccc(F)cc2)N2CCN(C3CCCC3)CC2)CC1 (centres undefined) | 770 nM
36 | Cc1cc(N[C@@H](Cc2ccccc2)C(=O)NCc2cccs2)nc(NCCc2cccnc2)n1 | 1010 nM
37 | COC(=O)c1ccc(CC(C)NCC(O)c2cccc(C(F)(F)F)c2)cc1 (centres undefined) | 970 nM and 1150 nM
38 | CCN(CC)CCN(CCCc1ccc(-c2ccc(C(F)(F)F)cc2)cc1)C(=O)Cn1c(CCc2cccc(F)c2F)nc(=O)c2ccccc21 | 770 nM
39 | CCOc1ccc2c(NN=Cc3ccc(OC)c(OC)c3)cc(C)nc2c1 | 700 nM
40 | CC(C)COc1ccc(Cl)cc1Cc1ccc(-c2nc3cc(F)c(F)cc3[nH]2)o1 | 890 nM
41 | COc1cc2nc(N3CCC(c4ccccc4)CC3)nc(NCc3ccc(=O)[nH]c3)c2cc1OC | 750 nM
42 | O=c1sn(-c2csc3ccccc23)c2ccccc12 | 340 nM
43 | COC(=O)c1ccc2nc(-c3ccc(C(=O)NC4CCN(Cc5ccccc5)CC4)s3)[nH]c2c1 | 690 nM
44 | Cc1cc(Nc2ccncc2)n2nc(C)c(-c3ccc(Cl)cc3)c2n1 | 160 nM
45 | C#CCCC(=O)Nc1cccc(-c2cccc(-c3nc4ccc(C(F)(F)F)cc4[nH]3)c2)c1 | 810 nM
46 | Cc1nc(Nc2ccc(C)c(Cl)c2)c2c(C)noc2n1 | 890 nM
47 | COc1ccc(CN2CCCN(Cc3cccc(NC(=O)c4ccc(Cl)c(Cl)c4)c3)CC2)cc1 | 970 nM
48 | NC(N)=NN=Cc1c2ccc(Cl)cc2c(Cl)c2ccc(Cl)cc12 | 960 nM
49 | COc1ccc(-c2cc(NCc3ccc(-n4ccnc4)cc3)nc(Nc3ccccc3)n2)cc1 | 970 nM
